Assay results: article doi:10.1101/2024.10.17.618876v1 (biorxiv, 2024)

Biological target: T1, human lysozyme (HL) (Homo sapiens, UniProt P61626)
T1 sequence (P61626 19-148): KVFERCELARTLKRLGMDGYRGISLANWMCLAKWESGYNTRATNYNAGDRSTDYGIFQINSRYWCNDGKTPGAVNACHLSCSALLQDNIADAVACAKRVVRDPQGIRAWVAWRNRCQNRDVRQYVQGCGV
Test: isothermal titration calorimetry
Format: binding

N=C(N)c1ccccc1 [benzamidine]
Kd: 1.55 µM
